What all share (type): functional
In assay [1] the test system is Mycobacterium tuberculosis. The experiment in a line: Antibacterial activity against multidrug-resistant Mycobacterium tuberculosis MS-115 under anaerobic condition assessed as growth inhibition at 10 to 20 ug/ml by BACTEC method.
Assay [2] relates to Mycobacterium tuberculosis. Description: Antibacterial activity against multidrug-resistant Mycobacterium tuberculosis MS-115 under anaerobic condition assessed as growth inhibition at 10 ug/ml by BACTEC method. The settings on record: read-out: GI.
The subject of assay [3] is Mycobacterium tuberculosis. Description: Antibacterial activity against multidrug-resistant Mycobacterium tuberculosis MS-115 under anaerobic condition assessed as growth inhibition at 20 ug/ml by BACTEC method. The conditions noted are these: read-out: GI.
Assay [4] has as its system Mycobacterium tuberculosis. The experiment in a line: Antibacterial activity against multidrug-resistant Mycobacterium tuberculosis MS-115 under anaerobic condition by BACTEC method.
For assay [5], the system named is Mycobacterium tuberculosis. Description: Antibacterial activity against multidrug-resistant Mycobacterium tuberculosis MS-115 under anaerobic condition assessed as growth inhibition at 5 ug/ml by BACTEC method. The settings on record: read-out: GI.
Assay [6] relates to Mycobacterium tuberculosis. The experiment in a line: Antibacterial activity against multidrug-resistant Mycobacterium tuberculosis MS-115 under anaerobic condition assessed as growth inhibition at 0.1 ug/ml by BACTEC method. The settings on record: read-out: GI.
The test system of assay [7] is Mycobacterium tuberculosis. Description: Antibacterial activity against multidrug-resistant Mycobacterium tuberculosis MS-115 under anaerobic condition assessed as growth inhibition at 2 ug/ml by BACTEC method. The settings on record: read-out: GI.
Assay [8] concerns Mycobacterium tuberculosis. The experiment in a line: Antibacterial activity against multidrug-resistant Mycobacterium tuberculosis MS-115 under anaerobic condition assessed as growth inhibition at 100 ug/ml by BACTEC method. The settings on record: read-out: GI.
For assay [9], the system named is Mycobacterium tuberculosis. Description: Antibacterial activity against multidrug-resistant Mycobacterium tuberculosis MS-115 under anaerobic condition assessed as growth inhibition at 1 ug/ml by BACTEC method. The conditions noted are these: read-out: GI.

Values after ≈ are worked out from the molar mass of the structure shown.

For the compound `CCCCCCCCCCCCC#Cc1cn(C2C=CC(O)C2)c(=O)[nH]c1=O` (racemic), the “growth inhibition (GI)” value in assay [1] amounted to 100%.

As for `CCCCCCCCCCCCC#Cc1cn(C2C=CC(O)C2)c(=O)[nH]c1=O` (single isomer, unassigned; (-)), the inhibition of growth at 10 µg/mL in assay [2] is 99%. The inhibition of growth at 20 µg/mL in assay [3] was found to be 100%. Besides, the MIC99 in [4] turned out to be 10 µg/mL (≈ 25.9 µM).

`CC[C@@H](CO)NCCN[C@@H](CC)CO` [ETHAMBUTOL]: in assay [5], the inhibition of growth at 5 µg/mL was 0%.

On to `NNC(=O)c1ccncc1` [ISONIAZID], for which the inhibition of growth at 0.1 µg/mL in assay [6] is 0%.

Take `CC1COc2c(N3CCN(C)CC3)c(F)cc3c(=O)c(C(=O)O)cn1c23` (stereo unspecified) [OFLOXACIN]: the inhibition of growth at 2 µg/mL in assay [7] stood at 100%. Moreover, the MIC99 in assay [4] was 2 µg/mL (≈ 5.53 µM).

For the compound `NC(=O)c1cnccn1` [PYRAZINAMIDE], the inhibition of growth at 100 µg/mL in assay [8] is 0%.

For the compound `CO[C@H]1/C=C/O[C@@]2(C)Oc3c(C)c(O)c4c(O)c(c(/C=N/N5CCN(C)CC5)c(O)c4c3C2=O)NC(=O)/C(C)=C\C=C\[C@H](C)[C@H](O)[C@@H](C)[C@@H](O)[C@@H](C)[C@H](OC(C)=O)[C@@H]1C` [RIFAMPIN], the inhibition of growth at 1 µg/mL in assay [9] was found to be 0%.

Consider `CN[C@@H]1[C@H](O[C@H]2[C@H](O[C@H]3[C@H](O)[C@@H](O)[C@H](N=C(N)N)[C@@H](O)[C@@H]3N=C(N)N)O[C@@H](C)[C@]2(O)C=O)O[C@@H](CO)[C@H](O)[C@H]1O` [STREPTOMYCIN], for which the inhibition of growth at 0.1 µg/mL in assay [6] came out at 0%.

The term MIC99 denotes an inhibitory concentration at the 99% level, which refers to growth in some studies and to a panel of isolates in others. High values mean weaker potency, low ones greater potency.

Values taken from ChEMBL document CHEMBL2157933, “The synthesis and antituberculosis activity of 5'-nor carbocyclic uracil derivatives” (Bioorg Med Chem, 2012).
